Reference: patent US11306087B2, “Inhibitors of KRAS G12C and methods of using the same” (Amgen Inc., priority 2017, dated 2022)

Experiments:
[1] = tested on: Phosphorylation of ERK1/2 in MIA PaCa-2 cells; test: Phospho-ERK1/2 MSD Assay; assay type: cell-based; settings: Homo sapiens, 2 hours compound treatment, 10 ng/mL EGF for 10 min, read-out: p-ERK IC50 (MIA PaCa-2)
Experimental: Phospho-ERK1/2 MSD Assay: MIA PaCa-2 (ATCC® CRL-1420™) and A549 (ATCC® CCL-185™) cells were cultured in RPMI 1640 Medium (ThermoFisher Scientific 11875093) containing 10% fetal bovine serum (ThermoFisher Scientific 16000044) and 1× penicillin-streptomycin-glutamine (ThermoFisher Scientific 10378016). Sixteen hours prior to compound treatment, MIA PaCa-2 or A549 cells were seeded in 96-well cell culture plates at a density of 25,000 cells/well and incubated at 37° C., 5% CO2. A compound dose-response titration was diluted in growth media, added to appropriate wells of a cell culture plate, and then incubated at 37° C., 5% CO2 for 2 hours. Following compound treatment, cells were stimulated with 10 ng/mL EGF (Roche 11376454001) for 10 min, washed with ice-cold Dulbecco's phosphate-buffered saline, no Ca^2+ or Mg^2+ (ThermoFisher Scientific 14190144), and then lysed in RIPA buffer (50 mM Tris-HCl pH 7.5, 1% Igepal, 0.5% sodium deoxycholate, 150 mM NaCl, and 0.5% sodium dodecyl sulfate) containing protease inhibitors (Roche 4693132001) and phosphatase inhibitors (Roche 4906837001). Phosphorylation of ERK1/2 in compound-treated lysates was assayed using Phospho-ERK1/2 Whole Cell Lysate kits (Meso Scale Discovery K151DWD) according to the manufacturer's protocol. Assay plates were read on a Meso Scale Discovery Sector Imager 6000, and data were analyzed using a 4-parameter logistic model to calculate IC50 values.

[2] = target: GDP-bound KRAS protein (aa 1-169), containing both G12C and C118A amino acid substitutions (Homo sapiens (Human), UniProt P01116, C118A/G12C); test: Coupled Nucleotide Exchange Assay; assay type: biochemical; settings: 5 min compound pre-incubation; inhibition of SOS-mediated nucleotide exchange; AlphaScreen
Experimental: For compounds in Table 2, the following assay conditions were employed: Coupled Nucleotide Exchange Assay: Purified GDP-bound KRAS protein (aa 1-169), containing both G12C and C118A amino acid substitutions and an N-terminal His-tag, was pre-incubated with a compound dose-response titration for 5 min in assay buffer (25 mM HEPES pH 7.4, 10 mM MgCl2, and 0.01% Triton X-100). Following compound pre-incubation, purified SOS protein (aa 564-1049) and GTP (Roche 10106399001) were added to the assay wells and incubated for an additional 30 min. To determine the extent of inhibition of SOS-mediated nucleotide exchange, purified GST-tagged cRAF (aa 1-149), nickel chelate AlphaLISA acceptor beads (PerkinElmer AL108R), and AlphaScreen glutathione donor beads (PerkinElmer 6765302) were added to the assay wells and incubated for 5 minutes. The assay plates were then read on a PerkinElmer EnVision Multilabel Reader, using AlphaScreen® technology, and data were analyzed using a 4-parameter logistic model to calculate IC50 values.

GDP-bound KRAS protein (aa 1-169), containing both G12C and C118A amino acid substitutions, sequence (P01116 other isoform, or with tags, fused parts or gaps G12C/C118A): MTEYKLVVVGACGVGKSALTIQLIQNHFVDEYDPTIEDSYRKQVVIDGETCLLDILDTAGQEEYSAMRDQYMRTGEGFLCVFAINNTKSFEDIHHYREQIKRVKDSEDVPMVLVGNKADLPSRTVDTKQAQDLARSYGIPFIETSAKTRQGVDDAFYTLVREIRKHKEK

Row | Compound | IC50 [1] [nM] | IC50 [2] [nM]
1 | C=CC(=O)N1[C@H](C)CN(c2nc(=O)n(-c3c(C(C)C)ncnc3C(C)C)c3nc(-c4c(O)cccc4F)c(F)cc23)C[C@@H]1C [Example 23, 4-(4-Acryloyl-cis-3,5-dimethylpiperazin-1-yl)-1-(4,6-diisopropylpyrimidin-5-yl)-6-fluoro-7-(2-fluoro-6-hydroxyphenyl)pyrido[2,3-d]pyrimidin-2(1H)-one] | 132 | 173
2 | C=CC(=O)N1C[C@H](C)N(c2nc(=O)n(-c3c(C(C)C)ncnc3C(C)C)c3nc(-c4c(O)cccc4F)c(Cl)cc23)C[C@H]1C [Example 8, 4-((2S,5R)-4-Acryloyl-2,5-dimethylpiperazin-1-yl)-6-chloro-1-(4,6-diisopropylpyrimidin-5-yl)-7-(2-fluoro-6-hydroxyphenyl)pyrido[2,3-d]pyrimidin-2(1H)-one] | 15 | 30
3 | C=CC(=O)N1[C@H](C)CN(c2nc(=O)n(-c3c(C(C)C)ncnc3C(C)C)c3nc(-c4ccccc4F)c(Cl)cc23)C[C@@H]1C [Example 19, 4-(4-Acryloyl-cis-3,5-dimethylpiperazin-1-yl)-6-chloro-1-(4,6-diisopropylpyrimidin-5-yl)-7-(2-fluorophenyl)pyrido[2,3-d]pyrimidin-2(1H)-one] | 61 | 42
4 | C=CC(=O)N1C[C@H](C)N(c2nc(=O)n(-c3c(C)ccnc3C(C)C)c3nc(-c4ccccc4F)c(F)cc23)C[C@H]1C [Example 4, 4-((2S,5R,M)-4-Acryloyl-2,5-dimethylpiperazin-1-yl)-6-fluoro-7-(2-fluorophenyl)-1-(2-isopropyl-4-methylpyridin-3-yl)pyrido[2,3-d]pyrimidin-2(1H)-one] | 102 | 206
5 | C=CC(=O)N1C[C@H](C)N(c2nc(=O)n(-c3c(C(C)C)ncnc3C(C)C)c3nc(-c4c(N)cccc4F)c(Cl)cc23)C[C@H]1C [Example 9, 4-((2S,5R)-4-Acryloyl-2,5-dimethylpiperazin-1-yl)-7-(2-amino-6-fluorophenyl)-6-chloro-1-(4,6-diisopropylpyrimidin-5-yl)pyrido[2,3-d]pyrimidin-2(1H)-one] | 21 | 54
6 | C=CC(=O)N1[C@H](C)CN(c2nc(=O)n(-c3c(C)ccnc3C(C)C)c3nc(-c4c(O)cccc4F)c(Cl)cc23)C[C@@H]1C (atropisomer, axis not shown; (M)) [Example 14, (M)-4-(4-Acryloyl-cis-3,5-dimethylpiperazin-1-yl)-6-chloro-7-(2-fluoro-6-hydroxyphenyl)-1-(2-isopropyl-4-methylpyridin-3-yl)pyrido[2,3-d]pyrimidin-2(1H)-one] | 35 | 16
7 | C=CC(=O)N1C[C@H](C)N(c2nc(=O)n(-c3c(C(C)C)ncnc3C(C)C)c3nc(-c4c(O)cccc4F)c(F)cc23)C[C@H]1C [Example 11, 4-((2S,5R)-4-Acryloyl-2,5-dimethylpiperazin-1-yl)-1-(4,6-diisopropylpyrimidin-5-yl)-6-fluoro-7-(2-fluoro-6-hydroxyphenyl)pyrido[2,3-d]pyrimidin-2(1H)-one] | 103 | 136
